Experiments:
Adrenergic α2C = Adrenergic α2C (Homo sapiens, UniProt P18825); test: Off‐target panel: Adrenergic α2C; format: cell-based
Protocol: (§1) GSK716 selectivity and PK properties were profiled in order to investigate the suitability of GSK716 for progression into in vivo studies and the potential for taking it forward as a clinical candidate for testing in humans. Since GSK716 results in loss of inhibitory activity of α1‐antitrypsin, the effect of the compound was assessed on other closely related serpins. […] Furthermore, there were no off‐target effects in a panel of assays considered predictive of known safety liabilities that precluded further development of GSK716 (Table EV1).

OPRK1 = OPRK1 (Homo sapiens, UniProt P41145); test: Off‐target panel: OPRK1; format: cell-based
Protocol: as §1

ChromLogD = format: physicochemical; conditions: pH 7.4; pH7.4
Protocol: ChromLogD was measured as previously described (Valkó et al, 1997).

[1] = Oral pharmacokinetics in male CD‐1 mouse; format: in vivo
Protocol: Male CD‐1 mice, Han Wistar rats or beagle dogs were administered GSK716 as a suspension in 1% w/v aqueous methylcellulose via oral gavage at doses of 1 mg/kg (dog) or 10, 30 and 100 mg/kg (mouse, rat). Blood samples were taken into EDTA, diluted and mixed with acetonitrile containing internal standard (alprazolam) and centrifuged to precipitate proteins. Aliquots of the resultant supernatant were analysed by LC‐MS/MS, and concentrations of GSK716 in blood were determined. Non‐compartmental pharmacokinetic analysis (NCA) was carried out using Phoenix WinNonLin 6.3 (Certara L.P.). Free drug was measured in Z α1‐antitrypsin transgenic mice by dialysing tissue samples in rapid equilibrium dialysis cassettes.

Muscarinic M2 = molecular target: T1, Muscarinic M2 (Homo sapiens, UniProt P08172); test: Off‐target panel: Muscarinic M2 (DRX); format: cell-based
T1 sequence (P08172 1-466): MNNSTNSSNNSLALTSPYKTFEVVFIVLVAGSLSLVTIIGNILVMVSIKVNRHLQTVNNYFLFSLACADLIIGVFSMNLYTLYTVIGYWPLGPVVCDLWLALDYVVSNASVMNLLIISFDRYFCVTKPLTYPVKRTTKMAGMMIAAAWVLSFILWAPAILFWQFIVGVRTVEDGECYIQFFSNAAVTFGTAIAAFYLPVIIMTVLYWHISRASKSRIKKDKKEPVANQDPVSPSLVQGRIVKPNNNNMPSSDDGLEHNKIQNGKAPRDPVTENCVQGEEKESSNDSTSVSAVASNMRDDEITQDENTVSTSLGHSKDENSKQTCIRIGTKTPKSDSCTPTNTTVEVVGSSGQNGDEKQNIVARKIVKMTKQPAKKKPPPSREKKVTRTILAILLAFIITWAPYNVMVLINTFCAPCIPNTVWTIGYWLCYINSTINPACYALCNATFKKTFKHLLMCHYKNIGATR
Protocol: as §1

Serotonin 5HT2C = molecular target: T2, Serotonin 5HT2C (Homo sapiens, UniProt P28335); test: Off‐target panel: Serotonin 5HT2C; format: cell-based
T2 sequence (P28335 33-458): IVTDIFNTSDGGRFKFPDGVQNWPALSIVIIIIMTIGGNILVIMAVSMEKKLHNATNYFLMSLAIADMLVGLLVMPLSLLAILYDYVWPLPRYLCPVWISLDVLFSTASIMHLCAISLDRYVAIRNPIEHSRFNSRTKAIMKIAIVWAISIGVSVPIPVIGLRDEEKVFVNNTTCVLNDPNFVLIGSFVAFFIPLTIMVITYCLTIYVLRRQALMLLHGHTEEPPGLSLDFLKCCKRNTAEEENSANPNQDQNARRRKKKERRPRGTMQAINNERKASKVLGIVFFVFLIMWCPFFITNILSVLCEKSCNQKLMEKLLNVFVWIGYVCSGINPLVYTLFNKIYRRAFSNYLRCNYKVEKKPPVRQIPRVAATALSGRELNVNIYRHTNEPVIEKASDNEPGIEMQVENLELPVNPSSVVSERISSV
Protocol: as §1

Serotonin transporter = Serotonin transporter (Homo sapiens, UniProt P31645); test: Off‐target panel: Serotonin transporter (DRX); format: cell-based
Protocol: as §1

Chain of OPRK1 (P41145 whole entry, species assumed): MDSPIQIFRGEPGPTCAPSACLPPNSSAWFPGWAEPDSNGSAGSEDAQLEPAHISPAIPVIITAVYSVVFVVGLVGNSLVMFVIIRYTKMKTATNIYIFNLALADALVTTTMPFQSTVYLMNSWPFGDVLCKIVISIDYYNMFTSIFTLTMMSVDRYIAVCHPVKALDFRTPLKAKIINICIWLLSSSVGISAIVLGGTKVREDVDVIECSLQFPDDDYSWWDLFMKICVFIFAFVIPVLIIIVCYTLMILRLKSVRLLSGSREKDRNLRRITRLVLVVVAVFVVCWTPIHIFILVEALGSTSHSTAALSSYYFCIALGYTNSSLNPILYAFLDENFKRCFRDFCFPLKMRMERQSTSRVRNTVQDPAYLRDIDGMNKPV
Chain of Serotonin transporter (P31645 whole entry): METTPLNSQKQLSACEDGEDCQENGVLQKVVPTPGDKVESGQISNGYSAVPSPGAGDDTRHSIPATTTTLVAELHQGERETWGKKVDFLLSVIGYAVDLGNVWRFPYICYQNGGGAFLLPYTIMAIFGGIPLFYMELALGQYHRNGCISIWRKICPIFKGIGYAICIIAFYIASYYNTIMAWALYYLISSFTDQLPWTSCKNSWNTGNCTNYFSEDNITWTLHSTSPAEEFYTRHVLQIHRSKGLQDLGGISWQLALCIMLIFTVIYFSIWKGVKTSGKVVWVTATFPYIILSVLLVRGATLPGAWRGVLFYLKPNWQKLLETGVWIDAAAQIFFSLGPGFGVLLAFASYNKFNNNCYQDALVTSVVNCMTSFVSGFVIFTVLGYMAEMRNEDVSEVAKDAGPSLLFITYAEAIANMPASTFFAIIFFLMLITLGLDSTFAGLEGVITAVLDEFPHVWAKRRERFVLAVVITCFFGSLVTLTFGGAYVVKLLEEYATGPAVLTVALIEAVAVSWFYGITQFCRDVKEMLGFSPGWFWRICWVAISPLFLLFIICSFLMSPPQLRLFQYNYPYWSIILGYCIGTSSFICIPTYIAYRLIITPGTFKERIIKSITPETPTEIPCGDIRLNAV
Chain of Adrenergic α2C (P18825 whole entry): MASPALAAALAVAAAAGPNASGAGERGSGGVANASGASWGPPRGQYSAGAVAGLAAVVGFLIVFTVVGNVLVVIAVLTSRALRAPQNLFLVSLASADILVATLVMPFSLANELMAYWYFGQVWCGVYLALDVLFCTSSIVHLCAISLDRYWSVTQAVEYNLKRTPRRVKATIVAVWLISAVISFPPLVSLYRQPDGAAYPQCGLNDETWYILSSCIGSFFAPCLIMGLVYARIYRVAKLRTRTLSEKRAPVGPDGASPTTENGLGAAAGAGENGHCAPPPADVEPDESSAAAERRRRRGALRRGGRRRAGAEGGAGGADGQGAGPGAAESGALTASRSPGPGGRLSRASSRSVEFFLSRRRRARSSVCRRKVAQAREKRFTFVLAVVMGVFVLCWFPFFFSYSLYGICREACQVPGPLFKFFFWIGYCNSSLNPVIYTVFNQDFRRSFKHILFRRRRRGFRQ

In the case of `CCC[C@@H](NC(=O)c1cccc2c1CC(=O)N2)[C@@H](O)c1cccc(F)c1C` [GSK716], the EC50 (Adrenergic α2C) is reported as > 100 µM, the EC50 (OPRK1) is reported as > 100 µM and the chromatographic logD (ChromLogD) is reported as 3.8. For the same compound, the DNAUCinf in blood ([1]; single PO 10 mg/kg) was 202 ± 101, the DNAUCinf in blood ([1]; single PO 30 mg/kg) was 294 ± 47 and the DNAUCinf in blood ([1]; single PO 100 mg/kg) was 403 ± 246. For the same compound, the EC50 (Muscarinic M2) was 5.01 µM, the IC50 (Muscarinic M2) was > 50.1 µM and the EC50 (Serotonin 5HT2C) was > 25.1 µM. For the same compound, the IC50 (Serotonin 5HT2C) was > 25.1 µM and the IC50 (Serotonin transporter) was > 100 µM.
